Results published in patent US20230021483A1, “[…] […] METHOD AND CLASSIFICATION OF PHARMACEUTICAL COMPONENTS BY USING TRANSCRIPTOMES” (National Institutes of Biomedical Innovation, Health and …, priority 2016, published 2023).

Test system: adjuvant-associated biological themes in LV, SP, LN
Conditions: LV, ID
Excerpt: A defined sets of genes were selected according to specified criteria (e.g., FC, PA-call, threshold values). Their functional enrichment values were then obtained from TargetMine (Chen, Y. A., Tripathi, L. P. & Mizuguchi, K. PloS one 6, e17844 (2011)) (http://targetmine.mizuguchilab.org/) using the API interface. The following resources were used throughout the analysis via TargetMine Interface (GO, GOSlim, Integrated Pathway, KEGG, Reactome, and the NCI pathway). The Holm-Bonferroni method was used for multiple testing corrections.
Whole organ transcriptome data for each organ from each mouse were analyzed as follows to obtain biological themes for individual samples from each adjuvant-administered group of three mice. […] A set of Pj genes was first defined, where eij/ei(c)>2.0. Biological themes enriched within Pj were then identified using TargetMine (Chen, Y. A. et al., PloS one 6, e17844 (2011)) (http://targetmine.mizuguchilab.org/). Tj denote the resulting list of biological themes, with associated p-values from Fischer's exact test.
Next, the biological themes called by all the individual samples in the group were scored as follows. Having obtained three lists (T1, T2 and T3) for a given experimental condition, a consensus list T of themes was created as T={(t1, p1), (t2, p2), . . . }, where ti is a biological theme that appears in all of T1, T2 and T3, and pi is the smallest of the associated p-values. Only the themes with the p-value of <0.05 were included in T.
To summarize the biological themes in T further, a list of terms considered to be associated with adjuvant activity in general was separately prepared. AT={at1, at2, . . . }, where ati is a pre-selected adjuvant-associated term (e.g., “stress” or “cytokine”). Finally, an enrichment score S for an adjuvant-associated term ati was defined as: S(ati)=Σ−log(pj), where the name of tj in T includes a term ati as a substring and pj is the associated p-value.
This scoring scheme summarizes the relative enrichment of pre-selected adjuvant-associated terms in genes responding to each adjuvant in each organ.

Poly_IC
IFN alpha, GO annotation line 1 of 5: 13.3
IFN alpha, GO annotation line 2 of 5: 4.7
IFN alpha: cellular response to interferon-alpha: 4.95
IFN alpha: positive regulation of interferon-alpha production: 5.95
IFN alpha: regulation of interferon-alpha production: 5.3
IFN beta: cellular response to interferon-beta: 17.2
IFN beta: interferon-beta production: 9.35
IFN beta: positive regulation of interferon-beta production: 8.94
IFN beta: regulation of interferon-beta production: 7.54
IFN beta: response to interferon-beta: 23
IFN gamma: cellular response to interferon-gamma: 10.5
IFN gamma: interferon-gamma production: 5.43
IFN gamma: regulation of interferon-gamma production: 5.32
IFN gamma: response to interferon-gamma: 22.3
NF-kappa B signaling pathway, GO annotation line 1 of 4: 18
NF-kappa B signaling pathway, GO annotation line 2 of 4: 13.5
NF-kappa B signaling pathway, GO annotation line 3 of 4: 8.57
NF-kappa B signaling pathway, GO annotation line 4 of 4: 9.04
TNF signaling pathway: 22.1
adaptive immune response, GO annotation line 1 of 5: 11.9
adaptive immune response, GO annotation line 2 of 5: 13
adaptive immune response, GO annotation line 3 of 5: 7.16
adaptive immune response, GO annotation line 4 of 5: 6.84
adaptive immune response, GO annotation line 5 of 5: 0
apoptosis, GO annotation line 1 of 8: 15.7
apoptosis, GO annotation line 2 of 8: 14.8
apoptosis, GO annotation line 3 of 8: 12.4
apoptosis, GO annotation line 4 of 8: 7.32
apoptosis, GO annotation line 5 of 8: 3.59
apoptosis, GO annotation line 6 of 8: 7.04
apoptosis, GO annotation line 7 of 8: 4.79
apoptosis, GO annotation line 8 of 8: 0
cell death, GO annotation line 1 of 9: 22.6
cell death, GO annotation line 2 of 9: 17.8
cell death, GO annotation line 3 of 9: 18.1
cell death, GO annotation line 4 of 9: 15.4
cell death, GO annotation line 5 of 9: 15.6
cell death, GO annotation line 6 of 9: 4.25
cell death, GO annotation line 7 of 9: 3.46
cell death, GO annotation line 8 of 9: 4.38
cell death, GO annotation line 9 of 9: 4.89
chemokine, GO annotation line 1 of 4: 6.25
chemokine, GO annotation line 2 of 4: 7.84
chemokine, GO annotation line 3 of 4: 9.13
chemokine, GO annotation line 4 of 4: 9
chemotaxis, GO annotation line 1 of 11: 20.7
chemotaxis, GO annotation line 2 of 11: 6.87
chemotaxis, GO annotation line 3 of 11: 22
chemotaxis, GO annotation line 4 of 11: 13.1
chemotaxis, GO annotation line 5 of 11: 6.8
chemotaxis, GO annotation line 6 of 11: 7.42
chemotaxis, GO annotation line 7 of 11: 7.6
chemotaxis, GO annotation line 8 of 11: 8.31
chemotaxis, GO annotation line 9 of 11: 9.92
chemotaxis, GO annotation line 10 of 11: 6.5
chemotaxis, GO annotation line 11 of 11: 3.15
cytokine, GO annotation line 1 of 17: 66.1
cytokine, GO annotation line 2 of 17: 48.5
cytokine, GO annotation line 3 of 17: 42.3
cytokine, GO annotation line 4 of 17: 12.1
cytokine, GO annotation line 5 of 17: 45.6
cytokine, GO annotation line 6 of 17: 43.5
cytokine, GO annotation line 7 of 17: 20.9
cytokine, GO annotation line 8 of 17: 7.3
cytokine, GO annotation line 9 of 17: 8.4
cytokine, GO annotation line 10 of 17: 34.3
cytokine, GO annotation line 11 of 17: 12.6
cytokine, GO annotation line 12 of 17: 4.18
cytokine, GO annotation line 13 of 17: 15
cytokine, GO annotation line 14 of 17: 14.5
cytokine, GO annotation line 15 of 17: 3.4
cytokine, GO annotation line 16 of 17: 3.66
cytokine, GO annotation line 17 of 17: 5.29
defense response, GO annotation line 1 of 11: 90.6
defense response, GO annotation line 2 of 11: 57.5
defense response, GO annotation line 3 of 11: 41.3
defense response, GO annotation line 4 of 11: 48.9
defense response, GO annotation line 5 of 11: 15.8
defense response, GO annotation line 6 of 11: 6.93
defense response, GO annotation line 7 of 11: 4.67
defense response, GO annotation line 8 of 11: 25.8
defense response, GO annotation line 9 of 11: 6.75
defense response, GO annotation line 10 of 11: 4.62
defense response, GO annotation line 11 of 11: 0
immune response, GO annotation line 1 of 8: 79.8
immune response, GO annotation line 2 of 8: 35.5
immune response, GO annotation line 3 of 8: 39.5
immune response, GO annotation line 4 of 8: 23.2
immune response, GO annotation line 5 of 8: 20.5
immune response, GO annotation line 6 of 8: 23.7
immune response, GO annotation line 7 of 8: 3.8
immune response, GO annotation line 8 of 8: 4.58
inflammatory response, GO annotation line 1 of 5: 32.2
inflammatory response, GO annotation line 2 of 5: 14.4
inflammatory response, GO annotation line 3 of 5: 5.99
inflammatory response, GO annotation line 4 of 5: 0
inflammatory response, GO annotation line 5 of 5: 0
innate immune response, GO annotation line 1 of 6: 59.5
innate immune response, GO annotation line 2 of 6: 40.7
innate immune response, GO annotation line 3 of 6: 27.7
innate immune response, GO annotation line 4 of 6: 23.3
innate immune response, GO annotation line 5 of 6: 18.5
innate immune response, GO annotation line 6 of 6: 7.74
interleukin-6: interleukin-6 production: 9.62
interleukin-6: positive regulation of interleukin-6 production: 5.06
interleukin-6: regulation of interleukin-6 production: 10.2
interleukin-12: interleukin-12 production: 6.82
interleukin-12: positive regulation of interleukin-12 production: 4.28
interleukin-12: regulation of interleukin-12 production: 7.39
migration, GO annotation line 1 of 10: 22.1
migration, GO annotation line 2 of 10: 6.99
migration, GO annotation line 3 of 10: 23.4
migration, GO annotation line 4 of 10: 18.5
migration, GO annotation line 5 of 10: 9
migration, GO annotation line 6 of 10: 9.34
migration, GO annotation line 7 of 10: 8.14
migration, GO annotation line 8 of 10: 7.59
migration, GO annotation line 9 of 10: 6.05
migration, GO annotation line 10 of 10: 3.46
stress, GO annotation line 1 of 3: 58.8
stress, GO annotation line 2 of 3: 40.8
stress, GO annotation line 3 of 3: 5.39
wounding, GO annotation line 1 of 3: 16.7
wounding, GO annotation line 2 of 3: 14.8
wounding, GO annotation line 3 of 3: 9.8
